Experiment [1] concerns E. cloacae P99. Description: MIC of compound alone, broth microdilution. It counts as cell-based. To be noted: strain P99; compound alone. A digest of the protocol:
(§1)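 Visual end point: lowest concentration that blocked growth. Conditions: cation-adjusted Mueller-Hinton broth, 5×10^5 cfu/mL final inoculum of log-phase bacteria, 16-20 h, 35° C, ambient atmosphere.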
For orientation: In broth dilution the organism is exposed to a series of concentrations in liquid medium.

The test system of experiment [2] is E. coli 190317. Put plainly: MIC of compound alone, broth microdilution. It counts as cell-based. The settings on record: strain 190317; compound alone. Put shortly:
as §1

The subject of experiment [3] is K. pneumoniae 6299. Put plainly: MIC of compound alone, broth microdilution. It counts as cell-based. To be noted: strain 6299; compound alone. Put shortly:
as §1

Experiment [4] has as its system K. pneumoniae BAA-1898. Description: MIC of compound alone, broth microdilution. To be noted: strain BAA-1898; compound alone. Format: cell-based. A digest of the protocol:
as §1

For experiment [5], the system named is P. aeruginosa CIP107051. Put plainly: MIC of compound alone, broth microdilution. It counts as cell-based. The settings on record: strain CIP107051; compound alone. Put shortly:
as §1

Experiment [6] has as its system E. cloacae P99. Put plainly: MIC of ceftazidime (CAZ) at fixed concentration of compound (synergy), broth microdilution. It counts as cell-based. The settings on record: strain P99; MIC of CAZ, compound fixed at 4 μg/mL. As for the experimental part:
(§2) Log phase bacterial suspensions were adjusted to a final density of 5×10^5 cfu/mL in cation-adjusted Mueller-Hinton broth (Becton-Dickinson) and added to each well (98 μL). Microplates were incubated for 16-20 h at 35° C. in ambient air. The MIC of the compounds was defined as the lowest concentration of said compounds that prevented bacterial growth as read by visual inspection.

Experiment [7] relates to E. coli 190317. The experiment is described as above. The settings on record: strain 190317; MIC of CAZ, compound fixed at 4 μg/mL. Format: cell-based. As for the experimental part:
as §2

Experiment [8] concerns K. pneumoniae 6299. The description is as above. It counts as cell-based. To be noted: strain 6299; MIC of CAZ, compound fixed at 4 μg/mL. As for the experimental part: as §2
In experiment [9] the test system is K. pneumoniae BAA-1898. The experiment is described as above. It counts as cell-based. To be noted: strain BAA-1898; MIC of CAZ, compound fixed at 4 μg/mL. The method, then:
as §2

Experiment [10] relates to P. aeruginosa CIP107051. The description is as above. Format: cell-based. To be noted: strain CIP107051; MIC of CAZ, compound fixed at 4 μg/mL. The method, then:
as §2

The next experiment has as its target AmpC (P99) (Enterobacter cloacae, UniProt P05364). To be noted: read-out: IC50 β-lactamase AmpC (P99); class (C); nitrocefin 200 μM, 30-min pre-incubation, enzyme 0.2 nM.
A further experiment has as its target CMY-37 (Citrobacter freundii, UniProt P05193). To be noted: read-out: IC50 β-lactamase CMY-37; class (C); nitrocefin 200 μM, 30-min pre-incubation, enzyme 0.2 nM.
The target in another experiment is AmpC (PAE) (Pseudomonas aeruginosa, UniProt P24735). The settings on record: read-out: IC50 β-lactamase AmpC (PAE); class (C); nitrocefin 200 μM, 30-min pre-incubation, enzyme 0.4 nM.
The next experiment has as its target OXA-15 (Pseudomonas aeruginosa, UniProt Q51574). The settings on record: read-out: IC50 β-lactamase OXA-15; class (D); nitrocefin 200 μM, 30-min pre-incubation, enzyme 0.4 nM.
The target in another experiment is TEM-1 (Escherichia coli, UniProt P62593). To be noted: read-out: IC50 β-lactamase TEM-1; class (A); nitrocefin 200 μM, 30-min pre-incubation, enzyme 0.1 nM.
Another experiment concerns the target SHV-1 (Klebsiella pneumoniae, UniProt P0AD64). To be noted: read-out: IC50 β-lactamase SHV-1; class (A); nitrocefin 200 μM, 30-min pre-incubation, enzyme 0.075 nM.
The next experiment addresses CTX-M-15 (Escherichia coli, UniProt Q9EXV5). To be noted: read-out: IC50 β-lactamase CTX-M-15; class (A); nitrocefin 200 μM, 30-min pre-incubation, enzyme 0.4 nM.
Another experiment has as its target KPC-2 (Klebsiella pneumoniae, UniProt Q9F663). To be noted: read-out: IC50 β-lactamase KPC-2; class (A); nitrocefin 200 μM, 30-min pre-incubation, enzyme 1 nM.
A further experiment addresses OXA-1 (Escherichia coli, UniProt P13661). The settings on record: read-out: IC50 β-lactamase OXA-1; class (D); nitrocefin 200 μM, 30-min pre-incubation, enzyme 0.2 nM.
The next experiment addresses OXA-11 (Pseudomonas aeruginosa, UniProt Q06778). The settings on record: read-out: IC50 β-lactamase OXA-11; class (D); nitrocefin 200 μM, 30-min pre-incubation, enzyme 1.2 nM.
The target of the next experiment is OXA-48 (Klebsiella pneumoniae, UniProt Q6XEC0). To be noted: read-out: IC50 β-lactamase OXA-48; class (D); nitrocefin 200 μM, 30-min pre-incubation, enzyme 0.3 nM.

Molecules are shown by their SMILES.

A word on the IC50: it is the concentration needed to halve the response being measured. Regarding `O=C([O-])Cc1cn(C2=CC3CN(C2)C(=O)N3OS(=O)(=O)[O-])nn1.[Na+].[Na+]` (stereo not drawn) [Example 61], the “MIC compounds of the invention alone” value in the experiment on E. cloacae P99 [1] was 32 µg/mL; in the experiment on E. coli 190317 [2], 32 µg/mL; in the experiment with K. pneumoniae 6299 [3] it was 32 µg/mL; in the experiment with K. pneumoniae BAA-1898 [4] it was greater than 32 µg/mL; in the experiment on P. aeruginosa CIP107051 [5], greater than 32 µg/mL. Also, the “MIC combination of CAZ and compounds of the invention at 4 μg/mL” value (from here on “MIC combination”) was found to be 8 µg/mL in the experiment with E. cloacae P99 [6]; 0.5 µg/mL in the experiment with E. coli 190317 [7]; 4 µg/mL with K. pneumoniae 6299 [8]; 64 µg/mL in the experiment with K. pneumoniae BAA-1898 [9]; 4 µg/mL in the experiment with P. aeruginosa CIP107051 [10]. The IC50 at AmpC (P99) came out at 20 nM; at CMY-37, 41 nM; on AmpC (PAE), 1100 nM; at OXA-15, 19 nM; on TEM-1 it was 1.7 nM; on SHV-1, 6.1 nM. For the same molecule, the half-maximal inhibitory concentration (IC50) on CTX-M-15 came out at 1.8 nM; on KPC-2, 17 nM; at OXA-1, 110 nM; on OXA-11 it was 360 nM; on OXA-48, 0.91 nM.

Take `N#Cc1ccn(C2=CC3CN(C2)C(=O)N3OS(=O)(=O)[O-])n1.[Na+]` (stereo not drawn) [Example 17, sodium [3-(3-carbonitrilepyrazol-1-yl)-7-oxo-1,6-diazabicyclo[3.2.1]oct-3-en-6-yl]sulfate]: the “MIC compounds of the invention alone” value with E. cloacae P99 [1] was 16 µg/mL; in the experiment with E. coli 190317 [2], 4 µg/mL; with K. pneumoniae 6299 [3], greater than 32 µg/mL; in the experiment with K. pneumoniae BAA-1898 [4] it was 16 µg/mL; in the experiment with P. aeruginosa CIP107051 [5], greater than 32 µg/mL. In addition, the “MIC combination” value was 1 µg/mL in the experiment with E. cloacae P99 [6]; less than 0.25 µg/mL in the experiment on E. coli 190317 [7]; 0.25 µg/mL in the experiment on K. pneumoniae 6299 [8]; 0.25 µg/mL with K. pneumoniae BAA-1898 [9]; 8 µg/mL in the experiment with P. aeruginosa CIP107051 [10]. For the same molecule, the IC50 turned out to be 30 nM on AmpC (P99); 87 nM on CMY-37; 280 nM at AmpC (PAE); 30 nM at OXA-15; 0.23 nM on TEM-1; 1 nM on SHV-1. The IC50 is 0.76 nM on CTX-M-15; 3.7 nM on KPC-2; 100 nM at OXA-1; 63 nM at OXA-11; 5.8 nM on OXA-48.

As for `NCc1cnn(C2=CC3CN(C2)C(=O)N3OS(=O)(=O)[O-])c1.O=C(O)C(F)(F)F.[Na+]` (stereo not drawn) [Example 15, sodium and 2,2,2-trifluoroacetate [3-(4-methyleneammoniumpyrazol-1-yl)-7-oxo-1,6-diazabicyclo[3.2.1]oct-3-en-6-yl]sulfate], the “MIC compounds of the invention alone” value in the experiment on E. cloacae P99 [1] is 8 µg/mL; with E. coli 190317 [2], 2 µg/mL; with K. pneumoniae 6299 [3] it was greater than 32 µg/mL; in the experiment with K. pneumoniae BAA-1898 [4], greater than 32 µg/mL; in the experiment with P. aeruginosa CIP107051 [5], 16 µg/mL. Further, the “MIC combination” value was no more than 0.25 µg/mL in the experiment with E. cloacae P99 [6]; less than 0.25 µg/mL in the experiment on E. coli 190317 [7]; 0.25 µg/mL with K. pneumoniae 6299 [8]; no more than 0.25 µg/mL in the experiment with K. pneumoniae BAA-1898 [9]; 2 µg/mL with P. aeruginosa CIP107051 [10]. Further, the IC50 at AmpC (P99) turned out to be 80 nM; at CMY-37 it was 76 nM; on AmpC (PAE) it was 360 nM; at OXA-15, 49 nM; on TEM-1, 0.79 nM; on SHV-1, 6.5 nM. In addition, the IC50 on CTX-M-15 turned out to be 1.5 nM; at KPC-2, 120 nM; at OXA-1 it was 700 nM; at OXA-11 it was 270 nM; at OXA-48, 18 nM.

As for `O=C(O)C(F)(F)F.O=C1N2CC(n3ccc(CNc4nccs4)n3)=CC(C2)N1OS(=O)(=O)[O-].[Na+]` (stereo not drawn) [Example 35, sodium and 2,2,2-trifluoroacetate [7-oxo-3-[3-(methylene-2-ammoniumthiazole)pyrazol-1-yl]-1,6-diazabicyclo[3.2.1]oct-3-en-6-yl]sulfate], the “MIC compounds of the invention alone” value in the experiment with E. cloacae P99 [1] is greater than 32 µg/mL; in the experiment with E. coli 190317 [2], 16 µg/mL; in the experiment with K. pneumoniae 6299 [3], greater than 32 µg/mL; in the experiment on K. pneumoniae BAA-1898 [4], greater than 32 µg/mL; with P. aeruginosa CIP107051 [5], greater than 32 µg/mL. Also, the “MIC combination” value in the experiment with E. cloacae P99 [6] was 32 µg/mL; in the experiment on E. coli 190317 [7], 0.5 µg/mL; in the experiment with K. pneumoniae 6299 [8], 32 µg/mL; with K. pneumoniae BAA-1898 [9] it was 32 µg/mL; with P. aeruginosa CIP107051 [10] it was 16 µg/mL. For the same molecule, the IC50 on AmpC (P99) was 12 nM; at CMY-37 it was 8.1 nM; on AmpC (PAE), 52 nM; on OXA-15, 79 nM; on TEM-1 it was 0.73 nM; on SHV-1 it was 3.2 nM. Further, the IC50 on CTX-M-15 amounted to 0.5 nM; at KPC-2 it was 13 nM; at OXA-1, 130 nM; on OXA-11, 54 nM; on OXA-48, 6 nM.

Consider `C/C(=N/O)c1cnn(C2=CC3CN(C2)C(=O)N3OS(=O)(=O)[O-])c1.[Na+]` (stereo not drawn) [Example 39, sodium [3-[4-[(Z,E)-N-hydroxy-C-methyl-carbonimidoyl]pyrazol-1-yl]-7-oxo-1,6-diazabicyclo[3.2.1]oct-3-en-6-yl]sulfate], for which the “MIC compounds of the invention alone” value in the experiment on E. cloacae P99 [1], in the experiment with E. coli 190317 [2], in the experiment with K. pneumoniae 6299 [3], with K. pneumoniae BAA-1898 [4] and in the experiment with P. aeruginosa CIP107051 [5] was greater than 32 µg/mL throughout. For the same molecule, the “MIC combination” value in the experiment with E. cloacae P99 [6] came to 16 µg/mL; with E. coli 190317 [7] it was 1 µg/mL; in the experiment on K. pneumoniae 6299 [8] it was 16 µg/mL; in the experiment on K. pneumoniae BAA-1898 [9], 128 µg/mL; in the experiment with P. aeruginosa CIP107051 [10] it was 8 µg/mL. In addition, the IC50 at AmpC (P99) was 9.5 nM; on CMY-37, 8.1 nM; on AmpC (PAE) it was 82 nM; at OXA-15 it was 8.5 nM; at TEM-1, 0.21 nM; at SHV-1, 1.3 nM. Moreover, the IC50 at CTX-M-15 was determined as 0.56 nM; on KPC-2 it was 4.1 nM; at OXA-1, 150 nM; on OXA-11, 73 nM; at OXA-48, 1.8 nM.

(Values after patent US10722520B2, “Heterocyclic compounds and their use in preventing or treating bacterial infections” (MUTABILIS, priority 2016, dated 2020).)
